These results are taken from ChEMBL document CHEMBL1201862, “PubChem BioAssay data set” (2004).

Some test systems named below: HCT-15; M19-MEL; SK-MEL-2; A498; NCI-H460; IGROV-1; Malme-3M; A549; HCC 2998; UO-31; UACC-257; RPMI-8226; NCI-H23; LOX IMVI; SF-295; HT-29; OVCAR-5.
Common to all, as to assay: growth of human tumour cells (NCI), 48 h

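Method: 48-hour compound exposure of cells in 96-well plates, five concentrations, linear interpolation of endpoints. GI50 marks 50% less growth.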 The source made the active and inactive calls. Cut-off read from the data, not from the text of the source: active = GI50 up to about 1.1 µM and inactive = higher.

Regarding `Cc1ccc(S(=O)(=O)NC2(C=O)CCCC3CCCCC32)cc1` (stereo not drawn), the GI50 in the assay on HCT-15 was greater than 100 µM; in the assay on M19-MEL, > 100 µM (inactive); in the assay on SK-MEL-2, > 100 µM (inactive); in the assay on A498 it was > 100 µM (inactive); in the assay on NCI-H460, > 100 µM (inactive); with IGROV-1, > 100 µM (inactive). Besides, the GI50 in the assay with Malme-3M, in the assay with A549, in the assay with HCC 2998, in the assay with UO-31, in the assay with UACC-257 and in the assay on RPMI-8226 was > 100 µM (inactive) in each case.

Take `CC1=C(C(=O)Nc2cccc(C(F)(F)F)c2)C(c2ccc(O)cc2)C(C(=O)Nc2cccc(C(F)(F)F)c2)=C(C)N1`: the GI50 in the assay on NCI-H23 was 16.1 µM (inactive); in the assay on LOX IMVI it was 15.6 µM (inactive); with M19-MEL, 16.4 µM (inactive); in the assay on SK-MEL-2 it was 17.3 µM (inactive); in the assay with A498 it was 17.5 µM (inactive); in the assay with NCI-H460, 16.7 µM (inactive). The GI50 in the assay with IGROV-1 was 15.6 µM (inactive); in the assay on SF-295 it was 20.5 µM (inactive); in the assay with HT-29, 16 µM (inactive); in the assay on Malme-3M, 25.8 µM (inactive); with A549 it was 24.4 µM (inactive); in the assay on HCC 2998 it was 17.3 µM (inactive). The GI50 is 12.7 µM (inactive) in the assay on UO-31, 17.7 µM (inactive) in the assay on UACC-257, 24.9 µM (inactive) with OVCAR-5 and 7.35 µM (inactive) in the assay on RPMI-8226.

Consider `NC(CCCC(N)P(=O)(O)c1ccccc1)P(=O)(O)c1ccccc1` (stereo not drawn), for which the GI50 is > 261 µM (inactive) with NCI-H23; > 261 µM (inactive) in the assay on LOX IMVI; greater than 261 µM with HCT-15; > 261 µM (inactive) in the assay on M19-MEL; > 261 µM (inactive) in the assay on SK-MEL-2; > 261 µM (inactive) in the assay with A498. Also, the GI50 in the assay on NCI-H460, in the assay with IGROV-1, in the assay on SF-295, in the assay on HT-29, with Malme-3M and in the assay with A549 was > 261 µM (inactive) throughout. Also, the GI50 with HCC 2998, with UO-31, in the assay with UACC-257 and in the assay with RPMI-8226 was > 261 µM (inactive) each time.

On to `Oc1nc(CC(O)c2ccc(Cl)c(Cl)c2)cc(-c2ccccc2)n1` (stereo not drawn), for which the GI50 is 71.9 µM (inactive) in the assay on NCI-H23; > 100 µM (inactive) in the assay on LOX IMVI; 89.1 µM in the assay on HCT-15; 44.3 µM (inactive) in the assay with M19-MEL; 26.1 µM (inactive) in the assay on SK-MEL-2; 32.7 µM (inactive) in the assay with A498. For the same molecule, the GI50 was 94.8 µM (inactive) in the assay with NCI-H460; > 100 µM (inactive) in the assay with IGROV-1; 53.7 µM (inactive) in the assay on SF-295; 40.5 µM (inactive) with HT-29; 46.8 µM (inactive) in the assay with Malme-3M; 27.1 µM (inactive) in the assay with A549. Besides, the GI50 in the assay on HCC 2998 is 33.5 µM (inactive); in the assay on UO-31 it was 26.2 µM (inactive); in the assay on UACC-257 it was 36.1 µM (inactive); with OVCAR-5, 11.2 µM (inactive).

As to `CCN1CCC(O)(/C=C/c2ccccc2)C(C(=O)/C=C/c2ccccc2)C1` (stereo not drawn), the GI50 in the assay on NCI-H23 was 2.93 µM (inactive); in the assay with HCT-15 it was 1.87 µM; in the assay with M19-MEL, 1.99 µM (inactive); with SK-MEL-2 it was 2.65 µM (inactive); in the assay on A498 it was 6.21 µM (inactive); in the assay with NCI-H460, 1.95 µM (inactive). Besides, the GI50 was 1.85 µM (inactive) with IGROV-1; 2.96 µM (inactive) in the assay with SF-295; 1.76 µM (inactive) with HT-29; 2.26 µM (inactive) in the assay on Malme-3M; 4.86 µM (inactive) in the assay with A549; 1.96 µM (inactive) in the assay on HCC 2998. The figures for the GI50 with UO-31, in the assay on UACC-257 and in the assay on OVCAR-5 were 10.1 µM (inactive), 1.98 µM (inactive) and 3.06 µM (inactive), respectively.

On to `O=C1NC(=O)C(C(=O)C(=O)Nc2cc(Cl)ccc2Cl)C(=O)N1`, for which the GI50 in the assay with NCI-H23 was > 100 µM (inactive); in the assay on HCT-15, greater than 100 µM; with M19-MEL it was > 100 µM (inactive); with SK-MEL-2 it was > 100 µM (inactive); in the assay on A498, > 100 µM (inactive); in the assay on NCI-H460 it was > 100 µM (inactive). The GI50 with IGROV-1, in the assay on SF-295, in the assay on Malme-3M, in the assay with A549, with HCC 2998 and with UO-31 was > 100 µM (inactive) throughout. The GI50 with UACC-257, in the assay on OVCAR-5 and in the assay with RPMI-8226 was > 100 µM (inactive) each time.

Turning to `COc1ccc(NC(=O)CC(=O)N/N=C/c2ccc(N(CCC#N)S(C)(=O)=O)cc2)cc1`, the GI50 is > 100 µM (inactive) with NCI-H23; > 100 µM (inactive) with LOX IMVI; greater than 100 µM with HCT-15; > 100 µM (inactive) in the assay with M19-MEL; > 100 µM (inactive) in the assay on SK-MEL-2; > 100 µM (inactive) with A498. Also, the GI50 in the assay on NCI-H460, in the assay on IGROV-1, in the assay on SF-295, in the assay on HT-29, in the assay on Malme-3M and in the assay on A549 was > 100 µM (inactive) each time. For the same molecule, the GI50 with HCC 2998, in the assay with UO-31, in the assay with OVCAR-5 and in the assay on RPMI-8226 was > 100 µM (inactive) throughout.

`COC(=O)C1C(=O)O[C@@H](c2ccc(OC)cc2OC)C1C(=O)OC` (stereo partly drawn): the GI50 with NCI-H23 was > 100 µM (inactive); in the assay on LOX IMVI, > 100 µM (inactive); in the assay with HCT-15 it was greater than 100 µM; with M19-MEL, > 100 µM (inactive); with A498, > 100 µM (inactive); in the assay with NCI-H460, > 100 µM (inactive). The GI50 in the assay with IGROV-1, in the assay on SF-295, with HT-29, with Malme-3M, in the assay with A549 and in the assay on HCC 2998 was > 100 µM (inactive) in each case. In addition, the GI50 in the assay on UO-31, with UACC-257, in the assay with OVCAR-5 and with RPMI-8226 was > 100 µM (inactive) throughout.

On to `CC1C=C[C@H](Sc2ccccc2)CC[C@@]1(C)O` (stereo partly drawn), for which the GI50 is 70.5 µM (inactive) in the assay with NCI-H23; > 100 µM (inactive) with LOX IMVI; greater than 100 µM in the assay on HCT-15; > 100 µM (inactive) in the assay on M19-MEL; > 100 µM (inactive) in the assay with SK-MEL-2; > 100 µM (inactive) with A498. In addition, the GI50 in the assay on NCI-H460, in the assay with IGROV-1, with HT-29, in the assay on Malme-3M, in the assay on A549 and with HCC 2998 was > 100 µM (inactive) throughout. The GI50 is 30.1 µM (inactive) in the assay on UO-31, > 100 µM (inactive) in the assay on UACC-257, > 100 µM (inactive) with OVCAR-5 and 57.3 µM (inactive) in the assay on RPMI-8226.
